Laboratory results as given in PubChem BioAssay AID248 (DTP/NCI, 2004).
Where “and” joins values, the source holds several entries; their conditions need not be identical. Equal values may be shown once. Toxic doses and inconclusive results are not listed. Rule as the data show it: active = T/C of 150% or more; inactive = T/C below 125%.

Test system: L1210 leukemia ip in BDF1 mice, survival T/C
Experiment: NCI In Vivo Anticancer Drug Screen. Data for tumor model L1210 Leukemia (intraperitoneal) in B6D2F1 (BDF1) mice
Conditions: endpoint: mean survival time, higher = longer survival
Method in brief: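 Transplantable tumor model; survival measured in treated vs vehicle control mice. Value = treated/control.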

[1] = dose: 100.0 mg/kg/injection, schedule: Q01DX009 (ip), vehicle: Klucel (hydroxypropylcellulose) (HPC)
[2] = dose: 200.0 mg/kg/injection, schedule: Q01DX009 (ip), vehicle: Klucel (hydroxypropylcellulose) (HPC)
[3] = dose: 100.0 mg/kg/injection, schedule: Q04DX002 (ip), vehicle: Klucel (hydroxypropylcellulose) (HPC)
[4] = dose: 100.0 mg/kg/injection, schedule: Q01DX009 (ip), vehicle: saline with Tween-80
[5] = dose: 100.0 mg/kg/injection, schedule: Q04DX003 (ip), vehicle: saline with Tween-80
[6] = dose: 200.0 mg/kg/injection, schedule: Q04DX003 (ip), vehicle: saline with Tween-80
[7] = dose: 400.0 mg/kg/injection, schedule: Q04DX003 (ip), vehicle: saline with Tween-80

Measured: T/C

OCC1(c2ccccc2)OC1c1ccccc1 (centres undefined)
inactive: dose: 50.0 mg/kg/injection, schedule: Q01DX009 (ip), vehicle: Klucel (hydroxypropylcellulose) (HPC) 95 % of control | dose: 75.0 mg/kg/injection, schedule: Q04DX003 (ip), vehicle: Klucel (hydroxypropylcellulose) (HPC) 102 % of control | [1] 96 % of control | dose: 150.0 mg/kg/injection, schedule: Q04DX003 (ip), vehicle: Klucel (hydroxypropylcellulose) (HPC) 102 % of control | [2] 96 % of control | dose: 300.0 mg/kg/injection, schedule: Q04DX003 (ip), vehicle: Klucel (hydroxypropylcellulose) (HPC) 107 % of control

CC(=O)Oc1c(Br)c(-c2c(C)c(Br)c(C)c(Br)c2C)c(OC(C)=O)c(Br)c1-c1c(C)c(Br)c(C)c(Br)c1C
inactive: [1] 95 % of control | [2] 100 % of control | dose: 400.0 mg/kg/injection, schedule: Q01DX009 (ip), vehicle: Klucel (hydroxypropylcellulose) (HPC) 95 % of control

NC(=O)N/N=C(\CF)C(=O)O
inactive: dose: 6.0 mg/kg/injection, schedule: Q01DX009 (ip), vehicle: Klucel (hydroxypropylcellulose) (HPC) 98 % of control | dose: 12.0 mg/kg/injection, schedule: Q01DX009 (ip), vehicle: Klucel (hydroxypropylcellulose) (HPC) 110 % of control | dose: 24.0 mg/kg/injection, schedule: Q01DX009 (ip), vehicle: Klucel (hydroxypropylcellulose) (HPC) 101 % of control | dose: 48.0 mg/kg/injection, schedule: Q01DX009 (ip), vehicle: Klucel (hydroxypropylcellulose) (HPC) 102 % of control

Cc1cc(C)n(CO)n1
inactive: [1] 107 % of control | dose: 100.0 mg/kg/injection, schedule: Q04DX003 (ip), vehicle: Klucel (hydroxypropylcellulose) (HPC) 100 % of control | [2] 108 % of control | dose: 200.0 mg/kg/injection, schedule: Q04DX003 (ip), vehicle: Klucel (hydroxypropylcellulose) (HPC) 110 % of control | dose: 400.0 mg/kg/injection, schedule: Q04DX003 (ip), vehicle: Klucel (hydroxypropylcellulose) (HPC) 112 % of control

ClCC1COC(CCl)O1 (centres undefined)
inactive: dose: 55.0 mg/kg/injection, schedule: Q01DX Z (ip), vehicle: saline 101 % of control | dose: 83.0 mg/kg/injection, schedule: Q01DX Z (ip), vehicle: saline 95 % of control | dose: 125.0 mg/kg/injection, schedule: Q01DX Z (ip), vehicle: saline 97 % of control

CCOC(=O)/C=C(\C)Nc1ncc(Br)cc1Br
inactive: dose: 100.0 mg/kg/injection, schedule: Q01DX001 (ip), vehicle: saline with Tween-80 92 % of control | dose: 200.0 mg/kg/injection, schedule: Q01DX001 (ip), vehicle: saline with Tween-80 96 % of control | dose: 400.0 mg/kg/injection, schedule: Q01DX001 (ip), vehicle: saline with Tween-80 89 % of control

O=C(C1C(c2ccccc2)C1c1ccccc1)N(CCCl)Cc1ccccc1 (centres undefined)
inactive: dose: 25.0 mg/kg/injection, schedule: Q04DX002 (ip), vehicle: Klucel (hydroxypropylcellulose) (HPC) 97 % of control | dose: 50.0 mg/kg/injection, schedule: Q04DX002 (ip), vehicle: Klucel (hydroxypropylcellulose) (HPC) 87 % of control | [3] 100 % of control

C=CCCCCCCCCC(=O)N(CCOC)CCOC
inactive: dose: 25.0 mg/kg/injection, schedule: Q01DX009 (ip), vehicle: saline with Tween-80 96 % of control | dose: 50.0 mg/kg/injection, schedule: Q01DX009 (ip), vehicle: saline with Tween-80 100 % of control | [4] 100 % of control and 91 % of control

CC[N+]1(C)CCC(CN2c3ccccc3Sc3ccccc32)C1 (centres undefined)
inactive: [5] 100 % of control | [6] 103 % of control | [7] 100 % of control

Cc1cccnc1NS(=O)(=O)c1ccccc1
inactive: [4] 101 % of control | [5] 94 % of control | dose: 200.0 mg/kg/injection, schedule: Q01DX009 (ip), vehicle: saline with Tween-80 98 % of control | [6] 94 % of control | dose: 400.0 mg/kg/injection, schedule: Q01DX009 (ip), vehicle: saline with Tween-80 102 % of control | [7] 94 % of control

COC1OC(OC)[CH]([Hg][Cl])C1OC (centres undefined)
inactive: dose: 3.13 mg/kg/injection, schedule: Q01DX009 (ip), vehicle: saline with Tween-80 94 % of control | dose: 6.25 mg/kg/injection, schedule: Q01DX009 (ip), vehicle: saline with Tween-80 92 % of control | dose: 6.25 mg/kg/injection, schedule: Q04DX003 (ip), vehicle: saline 100 % of control | dose: 12.5 mg/kg/injection, schedule: Q01DX009 (ip), vehicle: saline with Tween-80 91 % of control | dose: 12.5 mg/kg/injection, schedule: Q04DX003 (ip), vehicle: saline 100 % of control

O=C1CC2CCCC(C1)S2
inactive: dose: 75.0 mg/kg/injection, schedule: Q01DX001 (ip), vehicle: carboxymethylcellulose (CMC) 107 % of control | [3] 86 % of control | dose: 150.0 mg/kg/injection, schedule: Q01DX001 (ip), vehicle: carboxymethylcellulose (CMC) 109 % of control | dose: 200.0 mg/kg/injection, schedule: Q04DX002 (ip), vehicle: Klucel (hydroxypropylcellulose) (HPC) 100 % of control | dose: 300.0 mg/kg/injection, schedule: Q01DX001 (ip), vehicle: carboxymethylcellulose (CMC) 102 % of control | dose: 400.0 mg/kg/injection, schedule: Q04DX002 (ip), vehicle: Klucel (hydroxypropylcellulose) (HPC) 86 % of control

CCCCCCCCCCCCCCCCC(C(=O)OC)S(=O)(=O)O (centres undefined)
inactive: dose: 100.0 mg/kg/injection, schedule: Q04DX002 (ip), vehicle: saline 102 % of control | dose: 200.0 mg/kg/injection, schedule: Q04DX002 (ip), vehicle: saline 124 % of control | dose: 400.0 mg/kg/injection, schedule: Q04DX002 (ip), vehicle: saline 102 % of control

COc1cc(C(=O)OCCN(C(C)C)C(C)C)cc(OC)c1OC
inactive: dose: 100.0 mg/kg/injection, schedule: Q04DX003 (ip), vehicle: saline 101 % of control | dose: 200.0 mg/kg/injection, schedule: Q04DX003 (ip), vehicle: saline 95 % of control

CNC[C@@H](O)c1ccc(O)c(O)c1
inactive: dose: 0.1 mg/kg/injection, schedule: Q01DX009 (ip), vehicle: saline 94 % of control | dose: 0.2 mg/kg/injection, schedule: Q01DX001 (ip), vehicle: saline 112 % of control | dose: 0.2 mg/kg/injection, schedule: Q01DX009 (ip), vehicle: saline 109 % of control | dose: 0.31 mg/kg/injection, schedule: Q01DX009 (ip), vehicle: saline 111 % of control | dose: 0.4 mg/kg/injection, schedule: Q01DX001 (ip), vehicle: saline 106 % of control | dose: 0.4 mg/kg/injection, schedule: Q01DX009 (ip), vehicle: saline 102 % of control | dose: 0.4 mg/kg/injection, schedule: Q04DX003 (ip), vehicle: saline 108 % of control | dose: 0.59 mg/kg/injection, schedule: Q01DX009 (ip), vehicle: saline 95 % of control | dose: 0.62 mg/kg/injection, schedule: Q01DX009 (ip), vehicle: saline 98 % of control | dose: 0.8 mg/kg/injection, schedule: Q01DX001 (ip), vehicle: saline 104 % of control | dose: 0.8 mg/kg/injection, schedule: Q04DX003 (ip), vehicle: saline 113 % of control | dose: 0.9 mg/kg/injection, schedule: Q01DX009 (ip), vehicle: saline 97 % of control | dose: 1.1 mg/kg/injection, schedule: Q01DX001 (ip), vehicle: saline 96 % of control | dose: 1.25 mg/kg/injection, schedule: Q01DX009 (ip), vehicle: saline 101 % of control | dose: 1.3 mg/kg/injection, schedule: Q01DX009 (ip), vehicle: saline 97 % of control | dose: 1.6 mg/kg/injection, schedule: Q04DX003 (ip), vehicle: saline 98 % of control | dose: 2.3 mg/kg/injection, schedule: Q04DX003 (ip), vehicle: saline 103 % of control | dose: 2.5 mg/kg/injection, schedule: Q01DX009 (ip), vehicle: saline 102 % of control | dose: 3.6 mg/kg/injection, schedule: Q04DX003 (ip), vehicle: saline 109 % of control
